# Laboratory results from patent US12071469B2, “Peptide compounds for suppressing inflammation” (Duke University, priority 2011, dated 2024).
# System: mice with blast injury
# Assay: Morris water maze after blast injury (shock tube blast model)
# Format: in vivo, mouse
# Method: Another experimental procedure for measuring neurological deficits was developed using a Morris water maze. The procedure used a black aluminum pool containing a movable platform (7.5 cm diameter) and filled with 25-27° C. water opacified with powdered milk. Each training or testing session consisted of four trials per day with an interval of 20-30 minutes between trials. One day before testing, mice were trained using a visible platform (platform flagged and located in a different quadrant each trial to minimize quadrant habituation, no extra-maze visual cues) to habituate the mice to handling and swimming and to teach the mice the goal of the test-escaping the water by climbing on the platform. […] Latency to finding the platform and swimming speed were recorded using a computerized video tracking system (Ethovision 2.2.14; available from Noldus Information Technology, Leesburg VA). […]
# The shock tube was mounted vertically on an extruded aluminum frame using three vibration-damping U-bolts. […] Peak incident overpressure, positive-phase duration, and peak incident impulse were recorded in the three end-tube PTs for each test (data not shown). […] Atmospheric conditions (temperature, barometric pressure, humidity) were recorded prior to each test. […]
substance,measurement,setting,value
"Ac-VSRRR-NH2 [VR-55, Ac-VSRRR-NH2]",neurocognitive deficit after blast injury (Morris water maze),"FIG. 8, groups of 15",reduces neurocognitive deficit after blast injury
same,time in the correct quadrant (probe trial),"blast injury, vehicle 17.8±1.9 seconds, p=0.24",21.8 ± 2.7 s
